Our source for the GI50 and TGI values is PubChem BioAssay (NCI).

Values joined by “and” are separate entries in the source; they are usually repeats but may differ in a detail not shown here. Equal entries are not always repeated.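 Where inhibition never reached the appropriate level, the endpoint shown equals the highest concentration tested. Otherwise, values were interpolated linearly from a five-concentration, 48-hour dose response in 96-well plates. At the GI50, growth is halved. The concentration for full growth arrest is given as TGI.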

Some test systems named below: SNB-19 CNS; NCI-H460 lung; HOP-62 NSCLC; HL-60(TB) leukemia; K-562 leukemia; COLO 205 colon; SW-620 colon; SK-MEL-5 melanoma; RPMI-8226 leukemia; RXF 393 renal; SR leukemia; HT29 colon; 786-0 renal; UO-31 renal; OVCAR-4 ovarian; A498 renal; NCI/ADR-RES ovarian.
Holding throughout (experiment): NCI anticancer screen, dose series, 48 h

Regarding `COC(=O)CC(C(C(C)=O)C(=O)OCc1ccccc1)N1C(=O)OC(c2ccccc2)C1c1ccccc1` (stereo not given), the GI50 in the experiment on SNB-19 CNS is 10.5 µM and > 100 µM; in the experiment on RXF 393 renal it was 29.1 µM and 84.9 µM. Also, the TGI in the experiment with SNB-19 CNS is 91.7 µM and > 100 µM; with NCI-H460 lung, greater than 100 µM; in the experiment with HOP-62 NSCLC it was greater than 100 µM; in the experiment with HL-60(TB) leukemia, greater than 100 µM; in the experiment with K-562 leukemia, greater than 100 µM; with COLO 205 colon, greater than 100 µM. For the same compound, the TGI with SW-620 colon, with SK-MEL-5 melanoma, in the experiment on RPMI-8226 leukemia, in the experiment on RXF 393 renal, in the experiment with SR leukemia and in the experiment on HT29 colon was greater than 100 µM each time. In the experiment with 786-0 renal, the TGI is greater than 100 µM.

As for `O=C(NCc1ccc2ccc3cccnc3c2n1)c1ccc[n+](Cc2ccccc2)c1`, the TGI with SNB-19 CNS, with NCI-H460 lung, in the experiment on HOP-62 NSCLC, in the experiment with HL-60(TB) leukemia, with K-562 leukemia and in the experiment with UO-31 renal was greater than 100 µM throughout. Also, the TGI in the experiment on COLO 205 colon, with SW-620 colon, in the experiment with SK-MEL-5 melanoma, in the experiment with RPMI-8226 leukemia, in the experiment with RXF 393 renal and in the experiment on SR leukemia was greater than 100 µM throughout. The TGI with OVCAR-4 ovarian, with HT29 colon and with 786-0 renal was greater than 100 µM throughout.

Consider `COC(=O)/C(=C/c1ccc(OC)cc1)C(C(=O)O)=C1CCCCC1`, for which the TGI in the experiment on A498 renal, in the experiment on SNB-19 CNS, with NCI-H460 lung, in the experiment with HOP-62 NSCLC, with HL-60(TB) leukemia and in the experiment with K-562 leukemia was greater than 100 µM throughout. Also, the TGI with UO-31 renal, in the experiment on COLO 205 colon, in the experiment with SW-620 colon, in the experiment on SK-MEL-5 melanoma, in the experiment on RPMI-8226 leukemia and with RXF 393 renal was greater than 100 µM each time. Moreover, the TGI in the experiment with SR leukemia, in the experiment with OVCAR-4 ovarian, in the experiment with HT29 colon and in the experiment on 786-0 renal was greater than 100 µM in each case.

For the compound `O=C1/C(=C/c2ccccc2)CCCc2ccccc21`, the TGI worked out at 29.3 µM in the experiment with SNB-19 CNS; 31.4 µM in the experiment with NCI-H460 lung; 36.3 µM with HOP-62 NSCLC; 35.5 µM in the experiment on HL-60(TB) leukemia; 49.4 µM in the experiment on K-562 leukemia; 31.9 µM in the experiment on UO-31 renal. For the same compound, the TGI in the experiment with COLO 205 colon was 33.3 µM; with SW-620 colon it was 32.9 µM; in the experiment with RPMI-8226 leukemia it was greater than 100 µM; in the experiment on SR leukemia, 37.8 µM; with NCI/ADR-RES ovarian it was 40.5 µM; in the experiment on OVCAR-4 ovarian, 32 µM. The TGI in the experiment on HT29 colon came to 36 µM; in the experiment on 786-0 renal, 31.3 µM.

Turning to `CCCCCCCCCC(=O)NC(Cc1ccc(O)cc1)C(=O)NCCCNCCCCNCCCNC(=O)[C@@H](N)CCCN=C(N)N` (stereo not given in full), the TGI with SNB-19 CNS was greater than 100 µM; in the experiment on NCI-H460 lung, greater than 100 µM; in the experiment on HOP-62 NSCLC, 69.5 µM; with HL-60(TB) leukemia, 48.1 µM; in the experiment with K-562 leukemia, greater than 100 µM; in the experiment with UO-31 renal, greater than 100 µM. The TGI in the experiment with COLO 205 colon was 34.5 µM; in the experiment with SW-620 colon it was greater than 100 µM; with SK-MEL-5 melanoma, 35.7 µM; in the experiment with RPMI-8226 leukemia, greater than 100 µM; in the experiment with SR leukemia, greater than 100 µM; in the experiment on HT29 colon, greater than 100 µM. The TGI with 786-0 renal is greater than 100 µM.

Take `O/N=C\C(=Nc1ccc(Cc2ccc(N=C(/C=N\O)NO)cc2)cc1)NO`: the TGI in the experiment with A498 renal is greater than 100 µM; with SNB-19 CNS it was greater than 100 µM; with NCI-H460 lung, greater than 100 µM; in the experiment with HOP-62 NSCLC, greater than 100 µM; in the experiment with HL-60(TB) leukemia, 66.5 µM; in the experiment on K-562 leukemia, greater than 100 µM. The TGI in the experiment on UO-31 renal is 65 µM; with COLO 205 colon it was greater than 100 µM; with SW-620 colon, greater than 100 µM; in the experiment on SK-MEL-5 melanoma, greater than 100 µM; in the experiment with RPMI-8226 leukemia, greater than 100 µM; with OVCAR-4 ovarian, greater than 100 µM. Further, the TGI in the experiment with HT29 colon and with 786-0 renal was greater than 100 µM in each case.

For `COc1ccc(/C(Cl)=C(\C=O)c2ccc(Cl)cc2)cc1OC`, the TGI with A498 renal was 54.3 µM; in the experiment on SNB-19 CNS it was greater than 100 µM; with NCI-H460 lung, greater than 100 µM; with HOP-62 NSCLC, 42.3 µM; in the experiment on HL-60(TB) leukemia, 7.74 µM; with K-562 leukemia, 71.3 µM. Besides, the TGI in the experiment with UO-31 renal is 28 µM; in the experiment on COLO 205 colon it was 13.2 µM; in the experiment on SW-620 colon, 15.4 µM; with SK-MEL-5 melanoma it was greater than 100 µM; in the experiment with RPMI-8226 leukemia, 62.9 µM; in the experiment with RXF 393 renal, 20.7 µM. The figures for the TGI in the experiment with SR leukemia, in the experiment with OVCAR-4 ovarian and in the experiment with HT29 colon were 5.81 µM, 73.6 µM and 20.8 µM, respectively.

Take `O=C(O)c1ccc(Nc2nc3nn(Cc4ccccc4)cc3c(=O)s2)cc1`: the TGI in the experiment with SNB-19 CNS, with NCI-H460 lung, with HOP-62 NSCLC, in the experiment on HL-60(TB) leukemia, in the experiment with K-562 leukemia and in the experiment on UO-31 renal was greater than 100 µM each time. In addition, the TGI with COLO 205 colon, with SW-620 colon, with SK-MEL-5 melanoma, in the experiment on RPMI-8226 leukemia, with RXF 393 renal and in the experiment on SR leukemia was greater than 100 µM each time. Besides, in the experiment with 786-0 renal, the TGI is greater than 100 µM.

For the compound `CC[n+]1c(/C=C/c2ccc(N(CCCl)CCCl)cc2)ccc2cc(I)ccc21`, the TGI was 13.1 µM in the experiment with A498 renal; 2.35 µM in the experiment on SNB-19 CNS; 10.1 µM in the experiment with NCI-H460 lung; 3.55 µM in the experiment on HOP-62 NSCLC; 0.675 µM in the experiment on HL-60(TB) leukemia; 1.6 µM in the experiment with K-562 leukemia. In addition, the TGI stood at 14.2 µM in the experiment on UO-31 renal; 6.96 µM in the experiment on SW-620 colon; 1.72 µM with RPMI-8226 leukemia; 3.77 µM in the experiment with RXF 393 renal; 2.42 µM in the experiment on SR leukemia; 2.29 µM in the experiment with OVCAR-4 ovarian. The TGI in the experiment with HT29 colon is 8.19 µM.

As to `CN1NC(c2ccccc2)=C(C#N)C(=O)CC1c1ccc(Br)cc1` (stereo not given), the TGI in the experiment on A498 renal is greater than 100 µM; in the experiment with SNB-19 CNS it was greater than 100 µM; with NCI-H460 lung, greater than 100 µM; in the experiment on HOP-62 NSCLC it was 61 µM; with HL-60(TB) leukemia it was 83 µM; with SW-620 colon, greater than 100 µM. In addition, the TGI in the experiment with SK-MEL-5 melanoma is 57.7 µM; with RPMI-8226 leukemia it was greater than 100 µM; with RXF 393 renal it was greater than 100 µM; in the experiment on SR leukemia, greater than 100 µM; with OVCAR-4 ovarian, greater than 100 µM; with HT29 colon it was 75.6 µM.
